In ChEMBL document CHEMBL3301361, “Experimental in vitro DMPK and physicochemical data on a set of publicly disclosed compounds”:
≈ marks a conversion by molar mass, not a printed value.

Assay: physchem
Conditions: pH 7.4 buffer

Row | solubility thermodynamic [µM] | Structure (SMILES)
1 | 3.1 (≈ 0.996 µg/mL) | Nc1ncc(-c2cnn(CCO)c2)cc1-c1nc2ccccc2o1
2 | 3.5 (≈ 1.52 µg/mL) | CN(c1ccnc(Nc2cccc(S(C)(=O)=O)c2)n1)c1c(Cl)ccc2c1OCO2
3 | 2.4 (≈ 0.55 µg/mL) | COc1ccc2c(c1)Sc1ccccc1N2
4 | 2.8 (≈ 0.886 µg/mL) | O=S(=O)(Nc1ccccn1)c1ccc(C2CCCCC2)cc1
5 | 2.5 (≈ 0.798 µg/mL) | CCn1c2ccccc2c2cc(NC(=O)c3cc(C)on3)ccc21
6 | 2.5 (≈ 1.1 µg/mL) | COc1ccc([C@H](CC(=O)O)N2CCN(CCCc3ccc4c(n3)NCCC4)C2=O)cn1
7 | 2.6 (≈ 0.883 µg/mL) | CCOC(=O)Cc1csc(NC(=O)Nc2ccc(Cl)cc2)n1
8 | 3 (≈ 1.03 µg/mL) | CN(C(=O)c1ccco1)c1nnc(C23CC4CC(CC(C4)C2)C3)s1
9 | 3.1 (≈ 1.19 µg/mL) | O=S(=O)(NCc1cc(-c2ccccc2Cl)no1)c1ccc(Cl)cc1
10 | 2.2 (≈ 0.667 µg/mL) | CC(=O)Nc1nc(-c2ccc(Br)s2)cs1
11 | 3.1 (≈ 1.58 µg/mL) | CN(c1ccc(Cl)c(CO)c1)c1ccnc(Nc2cc(N3CCOCC3)cc(N3CCOCC3)c2)n1
12 | 2.4 (≈ 1.18 µg/mL) | COc1cc(N2CCCN(C(C)=O)CC2)ccc1Nc1ncc(Cl)c(-c2cnc3ccccn23)n1
13 | 2.8 (≈ 1.39 µg/mL) | COc1cc(N2CCN(C(C)=O)CC2)ccc1Nc1ncc(Cl)c(-c2cnc3c(F)cccn23)n1
14 | 2.5 (≈ 1.14 µg/mL) | C[C@@H](c1ccc(-c2ccc(F)cc2F)cc1)N1CC[C@](CCO)(c2ccc(F)cc2)OC1=O
15 | 2.9 (≈ 1.26 µg/mL) | COc1cccc(NC(=O)Cn2cc(Oc3ncnc4cc(OC)c(OC)cc34)cn2)c1
16 | 3.1 (≈ 1.49 µg/mL) | COCCOc1cc2c(Oc3cnn(CC(=O)Nc4cccc(OC)c4)c3)ncnc2cc1OC
17 | 3.2 (≈ 1.38 µg/mL) | CCn1cc(NC(=O)Cc2ccc(Oc3ccnc4cc(OC)ccc34)cc2OC)cn1
18 | 2.5 (≈ 1.28 µg/mL) | COc1cc2c(Nc3ccc(NC(=O)c4ccccc4)cc3)ncnc2cc1OCCCN1CCOCC1
19 | 2.5 (≈ 1.04 µg/mL) | O=C(Nc1ccc(N2CC[S+]([O-])CC2)nc1)c1nnc(Nc2ccccc2F)o1

Row | solubility thermodynamic [µM] | Structure (SMILES)
20 | 4 (≈ 0.997 µg/mL) | CCc1ccc(-c2cc(O)c3ccccc3n2)cc1
21 | 2.3 (≈ 1.06 µg/mL) | C[C@H]1CN(C(=O)OC(C)(C)C)CCN1c1ncc(OCc2ccc(S(C)(=O)=O)cc2)cn1
22 | 3.3 (≈ 1.53 µg/mL) | C[C@@H]1CN(c2ncc(OCc3ccc(S(C)(=O)=O)cc3)cn2)CCN1C(=O)OC(C)(C)C
23 | 3.8 (≈ 1.68 µg/mL) | CCc1cc(Nc2nc(NCc3cc(-c4ccccn4)no3)ncc2Br)n[nH]1
24 | 2.9 (≈ 1.39 µg/mL) | C[C@H](Oc1cccc2ncnc(Nc3ccc(OCc4ccccn4)c(Cl)c3)c12)C(=O)N(C)C
25 | 4 (≈ 1.76 µg/mL) | C[C@@H](Oc1cccc2ncnc(Nc3ccc4c(cnn4Cc4ccccn4)c3)c12)C(N)=O
26 | 2.6 (≈ 1.26 µg/mL) | C[C@@H](Oc1cccc2ncnc(Nc3ccc4c(cnn4Cc4cccc(F)c4)c3)c12)C(=O)N(C)C
27 | 2.3 (≈ 1.58 µg/mL) | CCN(C(=O)Cc1ccc(S(C)(=O)=O)cc1)C1CCN(CCC(c2ccccc2)c2ccc(NS(=O)(=O)Cc3ccccc3)cc2)CC1 (stereo not drawn)
28 | 3.9 (≈ 1.31 µg/mL) | Cc1c(Br)sc2nc(O)c(-c3ccccc3)c(O)c12
29 | 3.8 (≈ 1.7 µg/mL) | COC[C@@H](C(N)=O)N(C)Cc1cc2c(Nc3cccc(Cl)c3F)ncnc2cc1OC
30 | 2.3 (≈ 1.2 µg/mL) | Cc1ccc(Oc2ccc(Nc3ncnc4cccc(O[C@H](C)C(=O)N5CCOCC5)c34)cc2Cl)cn1
31 | 2.6 (≈ 0.962 µg/mL) | CN(C)C(=O)[C@H](Cc1ccccc1)NC(=O)c1cc2cc(Cl)ccc2[nH]1
32 | 2.2 (≈ 0.725 µg/mL) | COc1cc2ncnc(Nc3cc(O)c(C)cc3F)c2cc1OC
33 | 2.7 (≈ 0.968 µg/mL) | CNS(=O)(=O)c1ccc(Nc2nccc(-c3cnc(C)n3C)n2)cc1
34 | 3.2 (≈ 1.3 µg/mL) | CC1(C)Oc2ncnc(N)c2N=C1c1ccc(C23CCC(C(=O)O)(CC2)CC3)cc1
35 | 2.6 (≈ 0.968 µg/mL) | COc1cc2nccc(Nc3ccc(Oc4ccccc4)cc3)c2cc1OC
36 | 2.5 (≈ 1.07 µg/mL) | COc1cc2ncnc(Nc3ccc(F)c(Cl)c3)c2cc1OCCCn1ccnc1
37 | 3.9 (≈ 1.26 µg/mL) | O=C(Nc1cc(Cl)cc2c1[nH]c1cnccc12)c1cccnc1

Row | Structure (SMILES) | solubility thermodynamic [µM]
38 | COc1cc(N2CC3COCC(C2)N3)ccc1Nc1ncc(Cl)c(-c2cnc3ccccn23)n1 | 2.6 (≈ 1.24 µg/mL)
